Measured values reported in DBAASP.
Values after ≈ are worked out from the molar mass of the structure shown. Values joined by “and” are separate entries in the source; they are usually repeats but may differ in a detail not shown here. Equal entries are not always repeated.

Legend:
Assay in all cases: ≥ marks a high value that may be exact or a test limit, other limits are often not marked, values filed in µg/mL are converted to µM
[1] = system: Staphylococcus aureus ATCC 43300
[2] = system: Staphylococcus aureus ATCC 29213
[3] = system: Staphylococcus epidermidis ATCC 12228
[4] = system: Escherichia coli ATCC 25922
[5] = system: Staphylococcus aureus ATCC 25923
[6] = system: Salmonella enterica subsp. enterica serovar Typhimurium ATCC 14028
[7] = system: Salmonella enterica subsp. enterica serovar Pullorum ATCC 7913
[8] = system: Candida krusei CGMCC 2.1857
[9] = system: Candida parapsilosis CGMCC 2.3989
[10] = system: Candida tropicalis CGMCC 2.1975
[11] = system: Escherichia coli 1005
[12] = system: Candida albicans
[13] = system: Saccharomyces cerevisiae
[14] = system: Serratia marcescens
[15] = system: Salmonella typhimurium
[16] = system: Escherichia coli
[17] = system: Pseudomonas aeruginosa
[18] = system: Shigella dysenteriae
[19] = system: Bacillus subtilis
[20] = system: Micrococcus luteus
[21] = system: Proteus mirabilis
[22] = system: Staphylococcus epidermidis
[23] = system: Escherichia coli BW25113
[24] = system: Escherichia coli ML-35p
[25] = system: Bacillus subtilis ATCC 6633
[26] = system: Pseudomonas aeruginosa ATCC BAA-427
[27] = system: Pseudomonas aeruginosa ATCC 9027
[28] = system: Bacillus cereus ATCC 11778
[29] = system: Escherichia coli ATCC 35218
[30] = system: Staphylococcus aureus BCRC 10780
[31] = system: Pseudomonas aeruginosa ATCC 15692

| SMILES | MIC [1] [µM] | MIC [2] [µM] | MIC [3] [µM] | MIC [4] | MIC [5] [µM] | MIC [6] [µM] | MIC [7] [µM] | MIC [8] [µM] | MIC [9] [µM] | MIC [10] [µM] | MIC [11] [µM] | MIC [12] [µM] | other results |
| --- | --- | --- | --- | --- | --- | --- | --- | --- | --- | --- | --- | --- | --- |
| CC[C@H](C)[C@H](NC(=O)CN)C(=O)N[C@@H](CC(C)C)C(=O)N[C@@H](CC(=O)O)C(=O)N[C@H](C(=O)N[C@@H](CC(C)C)C(=O)N[C@@H](CCCCN)C(=O)N[C@@H](CCC(N)=O)C(=O)N[C@@H](Cc1ccccc1)C(=O)N[C@@H](C)C(=O)N[C@@H](CCCCN)C(=O)NCC(=O)N[C@H](C(=O)NCC(=O)N[C@@H](CCCCN)C(=O)N[C@@H](CC(=O)O)C(=O)N[C@@H](CC(C)C)C(=O)N[C@H](C(=O)N[C@@H](CCCCN)C(=O)NCC(=O)N[C@@H](C)C(=O)N[C@@H](C)C(=O)N[C@@H](CCC(N)=O)C(=O)NCC(=O)N[C@H](C(=O)N[C@@H](CC(C)C)C(=O)N[C@@H](CO)C(=O)N[C@H](C(=O)N[C@H](C(=O)O)C(C)C)[C@@H](C)O)C(C)C)C(C)C)C(C)C)[C@@H](C)O [GILDTLKQFAKGVGKDLVKGAAQGVLSTV] |  |  |  |  |  |  |  |  |  |  |  | > 34.3 | MIC [13]: 8.58 µM (≈ 25 µg/mL); MIC [14]: ≥ 34.3 µM; MIC [15]: 17.2 µM (≈ 50 µg/mL); MIC [16]: 8.58 µM (≈ 25 µg/mL); MIC [17]: 8.58 µM (≈ 25 µg/mL); MIC [18]: 8.58 µM (≈ 25 µg/mL); MIC [19]: 17.2 µM (≈ 50 µg/mL); MIC [20]: 0.858 µM (≈ 2.5 µg/mL); MIC [21]: 17.2 µM (≈ 50 µg/mL); MIC [22]: ≥ 34.3 µM |
| CC[C@H](C)[C@H](NC(=O)[C@@H]1CCCN1C(=O)[C@H](Cc1ccccc1)NC(=O)[C@H](CCCN=C(N)N)NC(=O)[C@H](Cc1ccccc1)NC(=O)[C@@H](N)CCCN=C(N)N)C(=O)N[C@@H](CCCN=C(N)N)C(=O)N[C@@H](CCCN=C(N)N)C(=O)N1CCC[C@H]1C(=O)N1CCC[C@H]1C(=O)N[C@H](C(=O)N[C@@H](CCCN=C(N)N)C(=O)N1CCC[C@H]1C(=O)N1CCC[C@H]1C(=O)N[C@@H](Cc1ccccc1)C(=O)N[C@@H](Cc1ccc(O)cc1)C(=O)N1CCC[C@H]1C(=O)O)[C@@H](C)CC [RFRFPIRRPPIRPPFYP] |  |  |  |  |  |  |  |  |  |  |  |  | MIC [23]: 8 µM (≈ 17.7 µg/mL) |
| CC(C)C[C@H](NC(=O)[C@H](CCCCN)NC(=O)[C@H](CCCCN)NC(=O)[C@H](Cc1ccccc1)NC(=O)[C@H](Cc1ccccc1)NC(=O)[C@H](CCCCN)NC(=O)[C@H](CCCCN)NC(=O)[C@H](Cc1ccccc1)NC(=O)[C@H](CCCN=C(N)N)NC(=O)[C@@H](N)CCCCN)C(=O)N[C@@H](CCCCN)C(=O)N[C@@H](CCCCN)C(=O)N[C@@H](Cc1ccccc1)C(=O)N[C@H](C(=O)N[C@@H](CCCCN)C(=O)N[C@@H](CCCCN)C(=O)NCC(=O)N[C@@H](Cc1ccccc1)C(=O)N[C@@H](CCCCN)C(=O)N[C@@H](CCCCN)C(=O)N[C@@H](Cc1ccccc1)C(=O)N[C@@H](C)C(=O)N[C@@H](CCCCN)C(=O)N[C@H](C(=O)O)C(C)C)C(C)C [KRFKKFFKKLKKFVKKGFKKFAKV] |  |  |  |  |  |  |  |  |  |  |  |  | MIC [24]: 1.98 µM and 0.989 µM |
| CC(C)C[C@H](NC(=O)[C@@H](NC(=O)[C@H](CCCCN)NC(=O)[C@H](CCCCN)NC(=O)[C@@H](N)CC(C)C)C(C)C)C(=O)N[C@@H](CCCCN)C(=O)N[C@@H](C)C(=O)N[C@@H](C)C(=O)N[C@@H](C)C(N)=O [LKKVLKAAA] |  |  |  |  | > 50 |  |  |  |  |  |  |  | MIC [27]: > 50 µM; MIC [28]: ≥ 50 µM; MIC [29]: ≥ 50 µM |
| CC[C@H](C)[C@H](NC(=O)[C@H](CCCCN)NC(=O)[C@@H]1CCCN1C(=O)[C@@H](NC(=O)[C@H](CC(C)C)NC(=O)[C@H](C)NC(=O)[C@H](Cc1ccccc1)NC(=O)[C@H](Cc1ccccc1)NC(=O)CNC(C)=O)[C@@H](C)CC)C(N)=O [GFFALIPKI] |  |  |  |  |  |  |  |  |  |  |  |  | MIC [30]: ≥ 99.5 µM |

The next lines start with results.

| MIC [1] [µM] | MIC [2] [µM] | MIC [3] [µM] | MIC [4] | MIC [5] [µM] | MIC [6] [µM] | MIC [7] [µM] | MIC [8] [µM] | MIC [9] [µM] | MIC [10] [µM] | MIC [11] [µM] | MIC [12] [µM] | SMILES | other results |
| --- | --- | --- | --- | --- | --- | --- | --- | --- | --- | --- | --- | --- | --- |
| 4 (≈ 4.83 µg/mL) | 8 (≈ 9.66 µg/mL) | 4 (≈ 4.83 µg/mL) | 4 µM and 8 µM | 8 (≈ 9.66 µg/mL) | 4 (≈ 4.83 µg/mL) | 4 (≈ 4.83 µg/mL) | 8 (≈ 9.66 µg/mL) | ≥ 64 | 2 (≈ 2.42 µg/mL) | 4 (≈ 4.83 µg/mL) | 8 (≈ 9.66 µg/mL) | CC(C)C[C@H](NC(=O)[C@H](CCCN=C(N)N)NC(=O)[C@H](CC(C)C)NC(=O)[C@H](CC(C)C)NC(=O)[C@H](CC(C)C)NC(=O)[C@H](CCCN=C(N)N)NC(=O)[C@H](CC(C)C)NC(=O)[C@@H](N)CCCN=C(N)N)C(=O)N[C@@H](CCCN=C(N)N)C(N)=O [RLRLLLRLR] |  |
|  |  |  | 6 µM (≈ 11.4 µg/mL) | 5 (≈ 9.48 µg/mL) |  |  |  |  |  |  |  | CC(C)C[C@H](NC(=O)[C@H](CC(=O)O)NC(=O)[C@H](CC(C)C)NC(=O)[C@H](CCCCN)NC(=O)[C@H](CC(C)C)NC(=O)[C@H](CC(=O)O)NC(=O)[C@H](CC(C)C)NC(=O)[C@H](CCCCN)NC(=O)[C@H](CC(C)C)NC(=O)[C@H](CC(=O)O)NC(=O)[C@H](CC(C)C)NC(=O)[C@H](CCCCN)NC(=O)[C@H](CCCN=C(N)N)NC(=O)[C@H](CCCN=C(N)N)NC(=O)[C@@H](N)CCCN=C(N)N)C(=O)O [RRRKLDLKLDLKLDL] | MIC [25]: 5 µM (≈ 9.48 µg/mL); MIC [26]: 6 µM (≈ 11.4 µg/mL) |
| 4 (≈ 6.76 µg/mL) | 4 (≈ 6.76 µg/mL) | 4 (≈ 6.76 µg/mL) | 4 µM and > 2 µM | 8 (≈ 13.5 µg/mL) | 4 (≈ 6.76 µg/mL) | 2 (≈ 3.38 µg/mL) | 2 (≈ 3.38 µg/mL) | 16 (≈ 27 µg/mL) | 1 (≈ 1.69 µg/mL) | 4 (≈ 6.76 µg/mL) | 2.83 (≈ 4.78 µg/mL) | NC(=O)[C@H](CCCN=C(N)N)NC(=O)[C@H](CCCN=C(N)N)NC(=O)[C@H](Cc1ccccc1)NC(=O)[C@H](CCCN=C(N)N)NC(=O)[C@H](Cc1ccccc1)NC(=O)[C@H](Cc1ccccc1)NC(=O)[C@H](Cc1ccccc1)NC(=O)[C@H](CCCN=C(N)N)NC(=O)[C@H](Cc1ccccc1)NC(=O)[C@H](CCCN=C(N)N)NC(=O)[C@@H](N)CCCN=C(N)N [RRFRFFFRFRR] |  |
| 4 (≈ 4.83 µg/mL) | 4 (≈ 4.83 µg/mL) | 4 (≈ 4.83 µg/mL) |  | 4 (≈ 4.83 µg/mL) | 4 (≈ 4.83 µg/mL) | 4 (≈ 4.83 µg/mL) | 2 (≈ 2.42 µg/mL) | 8 (≈ 9.66 µg/mL) | 2 (≈ 2.42 µg/mL) | 4 (≈ 4.83 µg/mL) | 2 (≈ 2.42 µg/mL) | CC[C@H](C)[C@H](NC(=O)[C@H](CCCN=C(N)N)NC(=O)[C@@H](NC(=O)[C@@H](NC(=O)[C@@H](NC(=O)[C@H](CCCN=C(N)N)NC(=O)[C@@H](NC(=O)[C@@H](N)CCCN=C(N)N)[C@@H](C)CC)[C@@H](C)CC)[C@@H](C)CC)[C@@H](C)CC)C(=O)N[C@@H](CCCN=C(N)N)C(N)=O [RIRIIIRIR] |  |
|  |  |  | 16 µM (≈ 42.9 µg/mL) | > 256 |  |  |  |  |  |  |  | CSCC[C@H](NC(=O)[C@@H](NC(=O)[C@@H](NC(=O)[C@H](CCCCN)NC(=O)[C@H](CC(C)C)NC(=O)[C@H](C)NC(=O)[C@H](CCCCN)NC(=O)[C@@H](NC(=O)[C@H](CC(C)C)NC(=O)[C@H](Cc1ccccc1)NC(=O)[C@H](CC(N)=O)NC(=O)[C@H](CCC(=O)O)NC(=O)[C@H](Cc1ccccc1)NC(=O)CNC(=O)[C@H](CC(C)C)NC(=O)[C@@H](N)CCCCN)C(C)C)[C@@H](C)O)C(C)C)C(=O)N[C@@H](Cc1cnc[nH]1)C(=O)N[C@H](C(=O)N1CCC[C@H]1C(=O)N[C@H](C(=O)N[C@@H](CO)C(=O)N1CCC[C@H]1C(=O)N[C@@H](CC(C)C)C(=O)N[C@@H](CC(C)C)C(N)=O)[C@@H](C)O)C(C)C [KLGFENFLVKALKTVMHVPTSPLL] | MIC [13]: ≥ 64 µM; MIC [31]: ≥ 256 µM; MIC [20]: 4 µM (≈ 10.7 µg/mL) |
